Results as given in patent publication US8927717B1, “Thiochromeno[2,3-c]quinolin-12-one derivatives, preparation method and application thereof” (National Defense Medical Center, priority 2014, dated 2015).

Legend:
Format in all cases: cell-based
HL-60(TB) = system: HL-60(TB)
SK-MEL-28 = system: SK-MEL-28
BT-549 = system: BT-549
NCI-H23 = settings: Non-small cell lung cancer; 10^−5 molar; 48 hours; SRB
K-562 = system: K-562
RPMI-8226 = system: RPMI-8226
U251 = system: U251
786-0 = system: 786-0
MDA-MB-435 = system: MDA-MB-435
KM12 = assay: cells
NCI-H226 = system: NCI-H226
SK-MEL-5 = system: SK-MEL-5
MOLT-4 = system: MOLT-4
UACC-62 = system: UACC-62
SF-268 = system: SF-268
DU-145 = system: DU-145
60 cancer cell lines = assay: NCI 60-cell screen, SRB, whole panel (mean, delta, range)
SNB-75 = system: SNB-75
MDA-MB-231/ATCC = system: MDA-MB-231/ATCC
[1] = Leukemia, 10^−5 molar, 48 hours, SRB
[2] = Homo sapiens, SK-MEL-28, five dose
[3] = Melanoma, 10^−5 molar, 48 hours, SRB
[4] = Breast cancer, 10^−5 molar, 48 hours, SRB
[5] = CNS cancer, 10^−5 molar, 48 hours, SRB
[6] = Homo sapiens, U-251, U251, five dose
[7] = Homo sapiens, NCI-H226, five dose
[8] = Homo sapiens, SNB-75, five dose

Structure (SMILES): CCNc1nc2ccccc2c2c(=O)c3cc(Cl)ccc3sc12 [Compound N2, 10-Chloro-6-ethylamino-12H-thiochromeno[2,3-c]quinolin-12-one]
- TGI (HL-60(TB); HL-60(TB), five dose): >100 µM
- GI50 (HL-60(TB); Homo sapiens, HL-60(TB), five dose): > 100 µM
- CC50 (HL-60(TB); Homo sapiens, HL-60(TB), five dose, read-out: LC50 (the source's name)): > 100 µM
- Growth percent HL-60(TB) (HL-60(TB); [1]): 103.33%
- GI50 (SK-MEL-28; [2]): > 100 µM
- LC50 (SK-MEL-28; [2]): > 100 µM
- Growth percent SK-MEL-28 (SK-MEL-28; [3]): 93.07%
- TGI (SK-MEL-28; SK-MEL-28, five dose): >100 µM
- TGI (BT-549; BT-549, five dose): >100 µM
- Growth percent BT-549 (BT-549; [4]): 100.10%
- GI50 (BT-549; Homo sapiens, BT-549, five dose): 9.87 µM
- CC50 (BT-549; Homo sapiens, BT-549, five dose, read-out: LC50 (the source's name)): > 100 µM
- Growth percent NCI-H23 (NCI-H23): 86.29%
- GI50 (K-562; Homo sapiens, K562, K-562, five dose): > 100 µM
- CC50 (K-562; Homo sapiens, K562, K-562, five dose, read-out: LC50 (the source's name)): > 100 µM
- TGI (K-562; K-562, five dose): >100 µM
- Growth percent K-562 (K-562; [1]): 77.52%
- GI50 (RPMI-8226; Homo sapiens, RPMI-8226, five dose): > 100 µM
- CC50 (RPMI-8226; Homo sapiens, RPMI-8226, five dose, read-out: LC50 (the source's name)): > 100 µM
- Growth percent RPMI-8226 (RPMI-8226; [1]): 79.66%
- TGI (RPMI-8226; RPMI-8226, five dose): >100 µM
- Growth percent U251 (U251; [5]): 76.58%
- GI50 (U251; [6]): 16.9 µM
- LC50 (U251; [6]): > 100 µM
- TGI (U251; U251, five dose): 67.90 µM
- TGI (786-0; 786-0, five dose): 33.8 µM
- GI50 (786-0; Homo sapiens, 786-0, five dose): 10.5 µM
- CC50 (786-0; Homo sapiens, 786-0, five dose, read-out: LC50 (the source's name)): > 100 µM
- Growth percent 786-0 (786-0; Renal cancer, 10^−5 molar, 48 hours, SRB): 23.87%
- GI50 (MDA-MB-435; Homo sapiens, MDA-MB-435, five dose): > 100 µM
- CC50 (MDA-MB-435; Homo sapiens, MDA-MB-435, five dose, read-out: LC50 (the source's name)): > 100 µM
- TGI (MDA-MB-435; MDA-MB-435, five dose): >100 µM
- Growth percent MDA-MB-435 (MDA-MB-435; [3]): 80.67%
- Growth percent KM12 (KM12; Colon cancer, 10^−5 molar, 48 hours, SRB): 85.79%
- GI50 (KM12; Homo sapiens, KM12, five dose): > 100 µM
- LC50 (KM12; Homo sapiens, KM12, five dose): > 100 µM
- TGI (KM12; KM12, five dose): >100 µM
- GI50 (NCI-H226; [7]): 33.2 µM
- LC50 (concentration giving 50% net cell kill) (NCI-H226; [7]): > 100 µM
- TGI (NCI-H226; NCI-H226, five dose): >100 µM
- Growth percent NCI-H226 (NCI-H226; Non-small cell lung cancer, 10^−5 molar, 48 hours, SRB): 41.31%
- LC50 (SK-MEL-5; Homo sapiens, SK-MEL-5, five dose): > 100 µM
- Growth percent SK-MEL-5 (SK-MEL-5; [3]): 73.99%
- TGI (SK-MEL-5; SK-MEL-5, five dose): >100 µM
- GI50 (MOLT-4; Homo sapiens, MOLT-4, five dose): > 100 µM
- CC50 (MOLT-4; Homo sapiens, MOLT-4, five dose, read-out: LC50 (the source's name)): > 100 µM
- Growth percent MOLT-4 (MOLT-4; [1]): 92.27%
- TGI (MOLT-4; MOLT-4, five dose): >100 µM
- GI50 (UACC-62; Homo sapiens, UACC-62, five dose): 22.3 µM
- CC50 (UACC-62; Homo sapiens, UACC-62, five dose, read-out: LC50 (the source's name)): > 100 µM
- Growth percent UACC-62 (UACC-62; [3]): 69.06%
- TGI (UACC-62; UACC-62, five dose): >100 µM
- Growth percent SF-268 (SF-268; [5]): 78.23%
- GI50 (SF-268; Homo sapiens, SF-268, five dose): 22.1 µM
- CC50 (SF-268; Homo sapiens, SF-268, five dose, read-out: LC50 (the source's name)): > 100 µM
- TGI (SF-268; SF-268, five dose): >100 µM
- TGI (DU-145; DU-145, five dose): >100 µM
- GI50 (DU-145; Homo sapiens, DU-145, five dose): > 100 µM
- CC50 (DU-145; Homo sapiens, DU-145, five dose, read-out: LC50 (the source's name)): > 100 µM
- Growth percent DU-145 (DU-145; Prostate cancer, 10^−5 molar, 48 hours, SRB): 87.67%
- GI50 (60 cancer cell lines; 60 cell, mean over panel, five dose): 28.8 µM
- CC50 (60 cancer cell lines; 60 cell, mean over panel, five dose, read-out: LC50, Mean): 100 µM
- Growth percent, Delta (60 cancer cell lines; delta over the cell panel, 10^−5 molar, 48 hours, SRB): 66.04%
- TGI, Mean (60 cancer cell lines; mean over panel, five dose): 83.18 µM
- Growth percent, Mean (60 cancer cell lines; mean over the cell panel, 10^−5 molar, 48 hours, SRB): 65.97%
- Growth percent, Range (60 cancer cell lines; range over the cell panel, 10^−5 molar, 48 hours, SRB): 103.40%
- Growth percent SNB-75 (SNB-75; [5]): 12.12%
- GI50 (SNB-75; [8]): 4.96 µM
- LC50 (SNB-75; [8]): 60.2 µM
- TGI (SNB-75; SNB-75, five dose): 22.00 µM
- Growth percent MDA-MB-231/ATCC (MDA-MB-231/ATCC; [4]): 48.66%
- GI50 (MDA-MB-231/ATCC; Homo sapiens, MDA-MB-231/ATCC, five dose): 10.1 µM
- CC50 (MDA-MB-231/ATCC; Homo sapiens, MDA-MB-231/ATCC, five dose, read-out: LC50 (the source's name)): > 100 µM
- TGI (MDA-MB-231/ATCC; MDA-MB-231/ATCC, five dose): 65.5 µM
